Measurements taken from PubChem BioAssay AID330 (DTP/NCI, 2004).
Several values for one entry are separate records, joined by “and”; a condition that tells them apart may be missing. Equal entries are not always repeated. Toxic doses and inconclusive results are not listed. The calls were made as follows: active = survival T/C of 150% or more; inactive = T/C below 125% in these data.

System: P388 leukemia ip, CD2F1 mice, survival T/C
Experiment: NCI In Vivo Anticancer Drug Screen. Data for tumor model P388 Leukemia (intraperitoneal) in CD2F1 (CDF1) mice
Settings: endpoint: median survival time, higher = longer survival
Summary of the method: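 Mice carrying the transplanted tumor received test compound or vehicle. Survival was recorded in each group, and the value is the treated-group measurement divided by that of the vehicle-treated control group.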

[1] = dose: 60.0 mg/kg/injection, schedule: Q01DX005 (ip), vehicle: saline with Tween-80
[2] = dose: 120.0 mg/kg/injection, schedule: Q01DX005 (ip), vehicle: saline with Tween-80
[3] = dose: 240.0 mg/kg/injection, schedule: Q01DX005 (ip), vehicle: saline with Tween-80
[4] = dose: 50.0 mg/kg/injection, schedule: Q01DX009 (ip), vehicle: saline with Tween-80
[5] = dose: 100.0 mg/kg/injection, schedule: Q01DX009 (ip), vehicle: saline with Tween-80
[6] = dose: 200.0 mg/kg/injection, schedule: Q01DX009 (ip), vehicle: saline with Tween-80
[7] = dose: 12.5 mg/kg/injection, schedule: Q01DX005 (ip), vehicle: Klucel (hydroxypropylcellulose) (HPC)
[8] = dose: 25.0 mg/kg/injection, schedule: Q01DX005 (ip), vehicle: Klucel (hydroxypropylcellulose) (HPC)
[9] = dose: 25.0 mg/kg/injection, schedule: Q01DX009 (ip), vehicle: saline with Tween-80
[10] = dose: 50.0 mg/kg/injection, schedule: Q04DX003 (ip), vehicle: saline with Tween-80
[11] = dose: 100.0 mg/kg/injection, schedule: Q04DX003 (ip), vehicle: saline with Tween-80
[12] = dose: 50.0 mg/kg/injection, schedule: Q01DX005 (ip), vehicle: saline
[13] = dose: 100.0 mg/kg/injection, schedule: Q01DX005 (ip), vehicle: saline
[14] = dose: 200.0 mg/kg/injection, schedule: Q01DX005 (ip), vehicle: saline
[15] = dose: 50.0 mg/kg/injection, schedule: Q01DX009 (ip), vehicle: saline
[16] = dose: 100.0 mg/kg/injection, schedule: Q01DX009 (ip), vehicle: saline
[17] = dose: 200.0 mg/kg/injection, schedule: Q01DX009 (ip), vehicle: saline
[18] = dose: 50.0 mg/kg/injection, schedule: Q01DX005 (ip), vehicle: Klucel (hydroxypropylcellulose) (HPC)

Measured: T/C

C=C1CC(OC(C)=O)/C=C(/C)CCC(C(C)(C)O)CC1O (stereo not drawn)
inactive: dose: 14.5 mg/kg/injection, schedule: Q01DX005 (ip), vehicle: Klucel + Tween-80 96 % of control | dose: 29.0 mg/kg/injection, schedule: Q01DX005 (ip), vehicle: Klucel + Tween-80 96 % of control | dose: 58.0 mg/kg/injection, schedule: Q01DX005 (ip), vehicle: Klucel + Tween-80 97 % of control | dose: 116.0 mg/kg/injection, schedule: Q01DX005 (ip), vehicle: Klucel + Tween-80 100 % of control

N#CNC1=NCOCN1
inactive: [1] 100 % of control | [2] 100 % of control

CSc1nc2c(nc(N)n2C2OC(COC(C)=O)C(OC(C)=O)C(OC(C)=O)C2OC(C)=O)c(=O)n1C (stereo not drawn)
inactive: [2] 92 % of control | [3] 96 % of control

CCCCCCCC/C=C\CCCCCCCC(=O)OCCCCCCCCCCCCCC
inactive: dose: 12.5 mg/kg/injection, schedule: Q01DX001 (ip), vehicle: other 100 % of control | dose: 25.0 mg/kg/injection, schedule: Q01DX001 (ip), vehicle: other 90 % of control | dose: 50.0 mg/kg/injection, schedule: Q01DX001 (ip), vehicle: other 100 % of control

CCN(CC)Cc1cc(C)c(O)c(N=Nc2ccc3c4c(cccc24)-c2ccccc2-3)c1C
inactive: [4] 90 % of control | [5] 93 % of control | [6] 89 % of control

CCCCCC[Se][Se]CCCCCC
inactive: dose: 3.12 mg/kg/injection, schedule: Q01DX005 (ip), vehicle: Klucel (hydroxypropylcellulose) (HPC) 98 % of control | dose: 6.25 mg/kg/injection, schedule: Q01DX005 (ip), vehicle: Klucel (hydroxypropylcellulose) (HPC) 97 % of control | [7] 106 % of control | [8] 104 % of control

CC(C)CCC1(CCBr)C(=O)NC(=Nc2ccccc2)NC1=O (stereo not drawn)
inactive: [9] 96 % of control | [4] 98 % of control | [5] 100 % of control | [6] 100 % of control

CC(=O)C1=C(O)C2(O)C(=O)c3c(c(C)c4ccc(C)c(O)c4c3O)CC2C(N)C1=O (stereo not drawn)
inactive: dose: 7.5 mg/kg/injection, schedule: Q01DX009 (ip), vehicle: saline + alcohol 103 % of control and 107 % of control and 120 % of control | dose: 15.0 mg/kg/injection, schedule: Q01DX009 (ip), vehicle: saline + alcohol 103 % of control | dose: 30.0 mg/kg/injection, schedule: Q01DX009 (ip), vehicle: saline + alcohol 119 % of control | [10] 111 % of control | [11] 111 % of control

CS(=O)(=O)OC1COC(c2ccccc2)OC1C1OC(c2ccccc2)OCC1OS(C)(=O)=O (stereo not drawn)
inactive: dose: 100.0 mg/kg/injection, schedule: Q01DX001 (ip), vehicle: Klucel (hydroxypropylcellulose) (HPC) 92 % of control | dose: 200.0 mg/kg/injection, schedule: Q01DX001 (ip), vehicle: Klucel (hydroxypropylcellulose) (HPC) 101 % of control | dose: 400.0 mg/kg/injection, schedule: Q01DX001 (ip), vehicle: Klucel (hydroxypropylcellulose) (HPC) 99 % of control

Cc1nonc1CCO
inactive: [12] 105 % of control | [13] 102 % of control | [14] 103 % of control

CC1(C)C(=O)C(C)(C)C1O
inactive: [15] 98 % of control | [16] 95 % of control | [17] 98 % of control

COC(=O)C(=C\c1nc2ccc([N+](=O)[O-])cc2s1)/C(C(=O)OC)=C1\CCCN1C
inactive: [12] 100 % of control | [13] 97 % of control | [14] 97 % of control

CC1(C)OC2(C)CCC1C1C2N1C(=O)C(c1ccccc1)c1ccccc1 (stereo not drawn)
inactive: [18] 109 % of control | dose: 100.0 mg/kg/injection, schedule: Q01DX005 (ip), vehicle: Klucel (hydroxypropylcellulose) (HPC) 100 % of control | dose: 200.0 mg/kg/injection, schedule: Q01DX005 (ip), vehicle: Klucel (hydroxypropylcellulose) (HPC) 109 % of control

CN1C(=O)C/C(=N/Nc2ccccc2)NC1=O
inactive: [4] 95 % of control | [5] 100 % of control | [6] 92 % of control

N#CN=[N+]([O-])c1ccc(C(=O)O)cc1
inactive: dose: 7.5 mg/kg/injection, schedule: Q04DX003 (ip), vehicle: Klucel (hydroxypropylcellulose) (HPC) 97 % of control | dose: 7.5 mg/kg/injection, schedule: Q04DX003 (ip), vehicle: saline with Tween-80 111 % of control | dose: 15.0 mg/kg/injection, schedule: Q04DX003 (ip), vehicle: Klucel (hydroxypropylcellulose) (HPC) 105 % of control | dose: 15.0 mg/kg/injection, schedule: Q04DX003 (ip), vehicle: saline with Tween-80 112 % of control | dose: 30.0 mg/kg/injection, schedule: Q04DX003 (ip), vehicle: saline with Tween-80 124 % of control

CC(C)c1ccc(C(O)C2CC2)cc1 (stereo not drawn)
inactive: [10] 109 % of control | [11] 95 % of control

CCN(CC)CCOCCC1(C)Oc2ccc(Cl)cc2O1 (stereo not drawn)
inactive: [15] 93 % of control | [16] 93 % of control

Cc1cc(C)c(C2C(=O)c3ccccc3C2=O)c(C)c1
inactive: [9] 111 % of control | [4] 109 % of control | [5] 116 % of control | [6] 110 % of control

C=C1CC2(CC(C(=C)C)CCC2C)OC1=O (stereo not drawn)
inactive: dose: 100.0 mg/kg/injection, schedule: Q01DX001 (ip), vehicle: saline 101 % of control | dose: 200.0 mg/kg/injection, schedule: Q01DX001 (ip), vehicle: saline 99 % of control | dose: 400.0 mg/kg/injection, schedule: Q01DX001 (ip), vehicle: saline 102 % of control

CCCCCCNC(=S)Nc1ccc2cc(C)ccc2n1
inactive: dose: 50.0 mg/kg/injection, schedule: Q01DX009 (ip), vehicle: Klucel (hydroxypropylcellulose) (HPC) 91 % of control | dose: 100.0 mg/kg/injection, schedule: Q01DX009 (ip), vehicle: Klucel (hydroxypropylcellulose) (HPC) 91 % of control | dose: 200.0 mg/kg/injection, schedule: Q01DX009 (ip), vehicle: Klucel (hydroxypropylcellulose) (HPC) 94 % of control

Cc1n[nH]c(=O)c2cc3oc4ccccc4c3n12
inactive: [1] 100 % of control | [2] 94 % of control | [3] 92 % of control

Cc1nnc(-n2nc(-c3ccc(Cl)cc3)cc2N)[nH]c1=O
inactive: dose: 50.0 mg/kg/injection, schedule: Q01DX005 (ip), vehicle: saline with Tween-80 98 % of control | dose: 100.0 mg/kg/injection, schedule: Q01DX005 (ip), vehicle: saline with Tween-80 106 % of control | dose: 200.0 mg/kg/injection, schedule: Q01DX005 (ip), vehicle: saline with Tween-80 93 % of control

CN(C)CC#CC1(O)c2ccccc2CCc2ccccc21
inactive: [15] 91 % of control | [16] 91 % of control | [17] 91 % of control

CC(C)(C)[N]=[V]([Cl])([Cl])[Cl]
inactive: [7] 98 % of control | [8] 91 % of control | [18] 98 % of control and 91 % of control

CC(CCc1ccccc1)NC1=NCCO1 (stereo not drawn)
inactive: [11] 95 % of control | dose: 200.0 mg/kg/injection, schedule: Q04DX003 (ip), vehicle: saline with Tween-80 100 % of control | dose: 400.0 mg/kg/injection, schedule: Q04DX003 (ip), vehicle: saline with Tween-80 90 % of control

COC(CC[S+](C)C)C(=O)O (stereo not drawn)
inactive: dose: 32.0 mg/kg/injection, schedule: Q01DX005 (ip), vehicle: water 105 % of control | dose: 64.0 mg/kg/injection, schedule: Q01DX005 (ip), vehicle: water 97 % of control | dose: 128.0 mg/kg/injection, schedule: Q01DX005 (ip), vehicle: water 102 % of control | dose: 256.0 mg/kg/injection, schedule: Q01DX005 (ip), vehicle: water 101 % of control
